The values that follow come from ChEMBL document CHEMBL4145484 (Eur J Med Chem, 2018).

In assay [1] the target is T1, Amine oxidase [flavin-containing] A (Homo sapiens, UniProt P21397).
T1 sequence (P21397 whole entry): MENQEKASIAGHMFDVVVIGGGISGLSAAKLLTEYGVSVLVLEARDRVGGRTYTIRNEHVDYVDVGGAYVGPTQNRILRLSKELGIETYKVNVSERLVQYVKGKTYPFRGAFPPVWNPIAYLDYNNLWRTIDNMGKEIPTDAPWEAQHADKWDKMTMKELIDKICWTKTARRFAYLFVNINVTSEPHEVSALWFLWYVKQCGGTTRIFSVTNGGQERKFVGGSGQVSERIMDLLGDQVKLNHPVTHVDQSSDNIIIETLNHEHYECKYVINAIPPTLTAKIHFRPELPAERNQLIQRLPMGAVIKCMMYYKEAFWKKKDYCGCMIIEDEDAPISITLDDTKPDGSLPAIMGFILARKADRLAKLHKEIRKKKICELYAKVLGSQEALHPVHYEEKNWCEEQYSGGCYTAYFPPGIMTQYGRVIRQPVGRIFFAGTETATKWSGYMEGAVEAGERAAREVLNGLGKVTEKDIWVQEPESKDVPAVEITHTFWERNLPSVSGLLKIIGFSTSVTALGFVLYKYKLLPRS
The assay can be described thus: Inhibition of recombinant human MAO-A using p-tyramine as substrate preincubated for 15 mins followed by substrate addition measured over 15 mins by Amplex red reagent-based fluorimetric method.

Assay [2] has as its target T2, Amine oxidase [flavin-containing] B (Homo sapiens, UniProt P27338).
T2 sequence (P27338 whole entry): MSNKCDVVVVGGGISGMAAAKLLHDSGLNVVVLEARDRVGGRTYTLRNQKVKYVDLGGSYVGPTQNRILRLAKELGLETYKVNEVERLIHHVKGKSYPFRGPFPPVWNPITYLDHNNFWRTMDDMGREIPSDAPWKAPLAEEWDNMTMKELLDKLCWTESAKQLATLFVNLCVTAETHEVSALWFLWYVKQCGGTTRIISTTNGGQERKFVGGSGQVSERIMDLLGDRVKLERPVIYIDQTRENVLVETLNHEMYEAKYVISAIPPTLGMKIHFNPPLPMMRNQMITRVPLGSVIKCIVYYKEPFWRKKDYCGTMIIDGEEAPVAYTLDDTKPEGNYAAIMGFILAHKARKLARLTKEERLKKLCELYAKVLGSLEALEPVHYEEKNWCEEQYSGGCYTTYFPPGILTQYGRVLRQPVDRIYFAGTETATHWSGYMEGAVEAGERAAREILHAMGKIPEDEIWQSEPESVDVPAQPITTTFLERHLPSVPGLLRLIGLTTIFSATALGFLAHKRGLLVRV
The assay can be described thus: Inhibition of recombinant human MAO-B using p-tyramine as substrate preincubated for 15 mins followed by substrate addition measured over 15 mins by Amplex red reagent-based fluorimetric method.

Assay [3] is filed under the species Homo sapiens. In words: Selectivity index, ratio of IC50 for recombinant human MAO-A to IC50 for recombinant human MAO-B.

As for `C#CCNC1CCc2c(OCCc3ccc(Cl)cc3)cccc21` (centres undefined), the results for the IC50 in assay [1] and in assay [2] were 10.2 µM and 2.51 µM, respectively. Also, the Ratio IC50 in assay [3] came out at 4.07.
For `C#CCNC1CCc2c(OCCCOc3ccccc3)cccc21` (centres undefined), in that order: more than 60 µM, 10.2 µM and more than 5.87.
Taken in the same sequence, the figures for `C#CCNC1CCc2c(OCCOc3cccc(NC(C)=O)c3)cccc21` (centres undefined) were 8.3 µM, 5.52 µM and 1.5.
As for `C#CCNC1CCc2c(OCCCOc3cccc(I)c3)cccc21` (centres undefined), the IC50 in assay [1] was more than 60 µM; in assay [2], 18 µM. The Ratio IC50 in assay [3] was more than 3.33.
Taken in the same sequence, the figures for `C#CCNC1CCc2c(OCCCOc3cc(C)c(Cl)c(C)c3)cccc21` (centres undefined) were more than 60 µM, 6.91 µM and more than 8.68.
In the case of `C#CCNC1CCc2c(OCc3cccc(Br)c3)cccc21` (centres undefined), the values for the IC50 in assay [1] and in assay [2] were 9.55 µM and 0.65 µM, respectively. In addition, the Ratio IC50 in assay [3] amounted to 14.7.
As to `C#CCNC1CCc2c(OCc3ccc(F)cc3)cccc21` (centres undefined), the results for the IC50 in assay [1] and in assay [2] were 7.8 µM and 1.87 µM, respectively. Also, in assay [3], the Ratio IC50 was found to be 4.17.
For `C#CCNC1CCc2c(OCc3ccc4ccccc4c3)cccc21` (centres undefined), in that order: more than 60 µM, 6.21 µM and more than 9.66.
Take `C#CCNC1CCc2c(SCc3ccccc3)cccc21` (centres undefined): the IC50 in assay [1] is more than 60 µM; in assay [2], 6.24 µM. For the same compound, the Ratio IC50 in assay [3] was more than 9.62.
Taken in the same sequence, the figures for `C#CCNC1CCc2c(OCc3ccc(C(F)(F)F)cc3)cccc21` (centres undefined) were more than 60 µM, 1.39 µM and more than 43.7.
For `C#CCNC1CCc2c(OCc3cccc(F)c3)cccc21` (centres undefined), in that order: 5.2 µM, 0.28 µM and 18.6.
For `C#CCNC1CCc2c(OCCOc3cccc4ccccc34)cccc21` (centres undefined), in that order: more than 60 µM, 3.39 µM and more than 17.7.
Regarding `C#CCNC1CCc2c(OCCc3cccc(Cl)c3)cccc21` (centres undefined), the IC50 in assay [1] was more than 60 µM; in assay [2], 5.87 µM. Further, the Ratio IC50 in assay [3] was more than 10.2.
For `C#CCNC1CCc2c(OCCCOc3ccc(C(C)C)cc3)cccc21` (centres undefined), in that order: 42.7 µM, 5.38 µM and 7.93.
Regarding `C#CCNC1CCc2c(OCc3ccc(F)c(F)c3)cccc21` (centres undefined), the IC50 in assay [1] amounted to 7.22 µM; in assay [2], 1.41 µM. In addition, in assay [3], the Ratio IC50 stood at 5.12.
For `C#CCNC1CCc2c(OCCOc3ccccc3)cccc21` (centres undefined), in that order: 14.1 µM, 4.57 µM and 3.08.
Taken in the same sequence, the figures for `C#CCNC1CCc2c(OCCc3ccccc3)cccc21` (centres undefined) were 9.1 µM, 3.87 µM and 2.35.
For the compound `C#CCNC1CCc2c(OCc3ccccc3)cccc21` (centres undefined), the IC50 in assay [1] came out at 15.4 µM; in assay [2] it was 1.97 µM. For the same compound, the Ratio IC50 in assay [3] was 7.84.
For `C#CCNC1CCc2c(OCc3cccc(C)c3)cccc21` (centres undefined), the IC50 in assay [1] came to 11.2 µM; in assay [2], 0.55 µM. For the same compound, in assay [3], the Ratio IC50 stood at 20.4.
Consider `C#CCNC1CCc2c(OCCc3cccc(NC(=O)c4ccc(Cl)cc4)c3)cccc21` (centres undefined), for which the IC50 in assay [1] was determined as 9.33 µM; in assay [2], 0.02 µM. For the same compound, the Ratio IC50 in assay [3] was 466.
For `C#CCNC1CCc2c(OCCOc3cccc(NC(=O)CCl)c3)cccc21` (centres undefined), in that order: more than 60 µM, 6.91 µM and more than 8.68.
For `C#CCNC1CCc2c(OCCCOc3ccc(CC)cc3)cccc21` (centres undefined), in that order: 31.4 µM, 10.5 µM and 2.99.
`C#CCNC1CCc2c(OCc3cccc(Cl)c3)cccc21` (centres undefined): the IC50 amounted to 7 µM in assay [1] and 0.33 µM in assay [2]. Besides, in assay [3], the Ratio IC50 stood at 21.2.
For the compound `C#CCNC1CCc2c(OCCCOc3cccc4ccccc34)cccc21` (centres undefined), the IC50 in assay [1] and in assay [2] was more than 60 µM in each case.
For `C#CCNC1CCc2c(OCc3ccc(C)cc3)cccc21` (centres undefined), the figures for the IC50 in assay [1] and in assay [2] were 4.33 µM and 1.09 µM, respectively. Besides, the Ratio IC50 in assay [3] worked out at 3.97.

As usually defined, the IC50 is the concentration needed to halve the response being measured.
